Where two headings read alike, the source gives them in different places.
Columns and labels:
[1] = topical ointment; cited from earlier work
[2] = reductions in blood flow; cited from earlier work
[3] = set-up: species or system rat (male Wistar)
Method: The following experiment was designed to determine the effect of changes in tissue blood flow (perfusion) on the transdermal absorption and subsequent tissue distribution of 3H-water.
Hindlimb perfusions: Briefly, rats (malc Wistar 280-340 g) were anaesthetised with sodium pentobarbitone 60 mg/ig i.p., the abdomen opened and the right femoral artery cannulated (PESO) via the aorta. A second cannula (PE205) was placed in the dorsal vena cava, and the hindlimb perfused in a humidicrib at 37° C. with oxygenated (95%O2 /5%CO2) Krebs Heinseleit Ringer (mM: NaCl 118, KCl 4.74, KH2 PO4 1.18, MgSO4.7H2 O 0 1.18 CaCl2.2H2 O 2.54, NaHCO3 25, Glucose 11.1;pH 7.4, 37° C.), containing 4% bovine serum albumin (Fraction V, Sigma). Once the perfusions were established rats were sacrificed by creating a pneumothorax and turned over so that cells could be attached to the outer thigh of the perfused limb. The pressure of the inflowing perfusate was continuously monitored, mean pressures were in the order of 30 and 40 mmHg at 4 and 8ml/min respectively. The perfused preparation is stable for up to 2 hrs, as validated by testing inflowing and outflowing perfusate samples for pH, dissolved oxygen concentrations, together with various enzyme and ion concentrations. The perfusion flow rates were controlled by a graduated peristaltic pump, and were measured at the beginning and end of each experiment.
Glass diffusion cells (8 cm high, 1.8 cm internal diameter, 2.54 cm^2 skin application area), were fixed to the skin on the outer thigh of the perfused hindlimb with adhesive. The application area on the hindlimb was first depilated with commercial Nair™ hair-removal cream and the epidermis removed using a dermatome before the perfusion was established. Solutions (2 ml) containing trace amounts of the radiolabelled ^3 H-water (Sigma Chemical Co, Australia), in phosphate buffered saline (pH 7.4, 37° C.) were introduced into the cell at time 0. Absorption studies were conducted for 90 minutes, after which time the cell contents were drawn out with a pipette, the cell removed and the tissues from beneath the position of the cell sequentially dissected into preweighed vials for weight determination, solubilisation and liquid scintillation counting.

[4] = format: in vivo, rat (male Wistar)
[5] = format: in vivo, rat (male Wistar); remark: listed apart in the source
Method: Male Wistar rats (348±20 g) were anaesthetised i.p. with sodium pentobarbitone (60 mg/kg) and laid abdomen down on a heating pad (37° C.) with the left hindleg extending over the edge of the pad. The left hind foot was cleaned with cotton wool swabs soaked in a dilute solution of ethanol then dried. The foot was then immersed, to a standard position marked on the ankle joint, in 2 ml of vehicle solution (30% propylene glycol/30% ethanol/40% water) containing ^3 H-water (Sigma, Australia) with (n=3) or without (n=3) 2% GTN (David Bull Laboratories Pty Ltd. Melbourne, Australia). Solutions were left in contact with the foot for 2 hours with 10 μl samples taken at time zero and at the end of the absorption period. After 2 hrs a blood sample was taken from the tail vein and animals were sacrificed by cervical dislocation whilst still anaesthetised. The rat paws were cleaned as previously to remove any excess radiolabelled solute from the surface. Skin from the upper part of the foot, the foot pad and foot muscles were dissected from each treated and contralateral paw, placed into preweighed scintillation vials, solubilised with NCS (Amersham, Australia) and counted for radioactivity, along with the 10 μl solution samples, following the addition of the appropriate scintillation cocktail. Statistical analysis was performed using a Student unpaired t-test, with significance taken at the P<0.05 level.

[6] = for Change in salicylic acid clearance from solutions applied to the dermis: FIG. 1
Method: In vivo dermal penetration and local tissue uptake studies: The rats were lightly anaesthetised by pentobarbitone (35mg/kg) and their body temperature maintained at 37° C. by placing them on a heating pad. The hair from the 4 cm^2 dorsum area were removed by electric clippers and the epidermis removed by means of an electrodermatome set at a thickness of 80 microns. A dermal absorption cell was adhered to the exposed rat dermis and warmed to 37° C. by means of an external heating device.
Solution of solute spiked with corresponding labelled substance and containing an appropriate concentration of phenylephrine, previously warmed to 37° C., was introduced into the dermal absorption cell and the solution stirred by a glass stirrer driven by an external motor. Samples were removed from the donor cell at predetermined times and placed in preweighed scintillation vials. The glass cell was removed from the rat skin at the end of two hour dermal perfusion study and the application area wiped dry with blotting paper. A blood sample was then taken from the tail vein and the animals sacrificed with overdoes of anaesthetic ether. Immediately thereafter the tissues below the treated site i.e. skin, subcutaneous tissue, fascia, muscle lining or superficial muscle, muscle, fat pad and deep muscle were removed from dissection and placed in preweighed scintillation vials. Similarly, the tissues below the contralateral side were also removed. Tissue and plasma samples were stored at -20° C. prior to analysis. In vivo dermal penetration and local tissue uptake studies (sacrificed animals): The rats were initially anaesthetised by intraperitoneal injection of pentobarbitone (35 mg/kg) and after removing epidermis as described above, were sacrificed by overdose of ether. Dermal perfusion and tissue uptake studies were then conducted in postmortem rats.
The phenylephrine induced reduction in blood flow to dermis was determined by monitoring the dermal clearance of tritiated water in presence of phenylephrine.
Aqueous samples removed from the glass cells in in vivo dermal perfusion studies were directly mixed with 5 ml of liquid scintillation cocktail BCS and counted on liquid scintillation counter. The tissue samples were solubilised with 50 μl of water and 1 ml of tissue solubilizer NCS at 50° C. for 6-8 hrs.

[7] = 30° C.; Michaels et al.; cited from earlier work
[8] = postmortem conditions; cited from earlier work
[9] = nitroglycerine; cited from earlier work
[10] = 2% GTN vs vehicle, 2 hours, FIG. 5

CCCCC[C@H](O)/C=C/[C@@H]1[C@H]2C/C(=C/CCCC(=O)O)O[C@H]2C[C@H]1O [Prostaglandin I2 (PGI2)]
Effectiveness in the treatment of skin ulcers [1]: effective in the treatment of skin ulcers

O [Water]
Absorption from dermal and subcutaneous sites [2]: significant reductions in absorption
Dependence of tissue concentrations on perfusion flow rate ([3]; 4 vs 8 ml/min): great dependence on perfusion flow rate
Tissue concentration of water in dermis (2 mm) and superficial muscle layer (5 mm) ([3]; 8 ml/min vs 4 ml/min, p<0.05): statistically lower
Tissue concentration of water in the deeper muscle layers ([3]; lower flow rate (4 ml/min)): higher concentrations
Increase in clearance from the dermal cell ([3]; perfusion flow rate raised from 4 ml/min to 8 ml/min, p<0.05, 90 minutes, pH 7.4, 37° C.): 31%
Concentration in plasma and contralateral tissues ([4]; in the presence of phenylephrine): decreased
Concentration in tissues below the application area ([4]; in the presence of phenylephrine, FIGS. 3 & 4): increased
Concentration of water in upper skin and muscle tissues of the contralateral limb ([5]; 2% GTN vs vehicle): significant increase
Concentration in the outer skin or foot pad of the rat paw [5, 10]: no significant change
Concentration of water in the deeper foot muscles [5, 10]: highly significant increase
Plasma concentration of water ([5]; 2% GTN vs vehicle, 2 hours, P=0.046, FIG. 5): significant increase
Underlying tissue concentration of topically coadministered 3H-water ([5]; topical GTN, anaesthetised animals): significantly increase
Dermal clearance (Mean ± S.D.) ([6]; Control (no phenylephrine), anaesthetised rats, 37° C., two hour study): 1.10 ± 0.24 mL/h
Dermal clearance (Mean ± S.D.) ([6]; Phenylephrine (1:5000)): 0.40 ± 0.02 mL/h
Dermal clearance (Mean ± S.D.) ([6]; Phenylephrine (1:20000)): 0.53 ± 0.05 mL/h
Dermal clearance (Mean ± S.D.) ([6]; Sacrificed animals): 0.36 ± 0.02 mL/h

CN[C@@H](C)[C@H](O)c1ccccc1 [ephedrine]
Maximum flux through skin [7]: 250-400 μg/cm^2 per hr

CN(Cc1cnc2nc(N)nc(N)c2n1)c1ccc(C(=O)N[C@@H](CCC(=O)O)C(=O)O)cc1 [methotrexate]
Disappearance from dermal and subcutaneous sites [8]: reduced

O=[N+]([O-])OCC(CO[N+](=O)[O-])O[N+](=O)[O-] [nitroglycerine]
Water solubility [9]: 1300 µg/mL

O=C(O)c1ccccc1O [salicylic acid]
Plasma levels and levels in contralateral tissues ([4]; PE concentration of 0.1%, FIG. 2a-h): sudden increase
Concentration in underlying tissues (fraction of initial concentration) ([4]; PE concentrations above 0.01%, FIG. 2a-g): approach a constant value
Concentration in underlying tissues (fraction of initial concentration) ([4]; PE up to 0.01%, underlying tissues except for fat pad, FIG. 2a-g): increase with increase in concentration of PE up to 0.01%
Systemic salicylic acid blood levels ([4]; increasing phenylephrine concentration, FIG. 2h): gradual decline
Concentration in contralateral tissues ([4]; increasing phenylephrine concentrations, FIG. 2a-g): decreased with increasing phenylephrine concentrations
Concentration in deep muscle ([4]; phenylephrine 0.01%): maximum concentrations
Concentration in deep muscle ([4]; phenylephrine above 0.01%): decreases
Change in salicylic acid clearance from solutions applied to the dermis ([6]; increasing phenylephrine concentration up to 0.05%): decreased up to phenylephrine concentration of 0.05%
Change in salicylic acid clearance from solutions applied to the dermis ([6]; phenylephrine 0.1%): no further decrease

— patent US5750141A, “Administration of vaso-active agent and therapeutic agent” (The University of Queensland, priority 1993, dated 1998)
